Experiments:
[1] = tested on: MA104 cells; experiment: Toxicity of Z-ligustilide to MA104 cells (MTT assay); format: cell-based; conditions: 48 h
Procedure: According to the common drug concentration range of Z-ligustilide, the cytotoxicity pre-experiment is performed in the range of 1-100 μM in this experiment. The MA104 cells at the logarithmic phase are observed under a microscope, the cellular morphology is uniform and full with clear edges, and when the number reaches 80%, digestion, centrifugation and re-suspension are conducted. After further dilution, 10 μl of the suspension is taken on a blood cell counting plate to count and calculate the required cell volume. Then, the cells are laid in a 96-well plate, 100 μl of cell suspension is added in each well, and the cell density is 8×10^4 cells/mL. When the cells adhere to the wall to form a single layer, the drug group is administered, and the normal group is added with an equal volume of DMEM (without serum). After incubation for 48 h, the cytotoxicity of Z-ligustilide is detected by MTT reagent. 1/10 volume of MTT solution is added in each well and incubated in an incubator. After 4 h, the solution in the wells is sucked out, 150 μL of DMSO is added in each well, and the absorbance is measured and recorded at a wavelength of 490 nm under the condition of oscillation for 30 s.
The formula of the relative survival rate of the cells is: {(Aexperimental group−Ablank)/(Acontrol group−Ablank)×100%}

[2] = tested on: RV (Wa strain RV); experiment: Effect of Z-ligustilide in resisting RV adsorption (MTT, MA104 cells); format: cell-based, Rotavirus (RV); conditions: for inhibition rate against RV (resisting adsorption): drug 2 h before virus, 48 h
Procedure: The drug solution is added in a 96-well culture plate of MA104 cells that grow to a single layer, and each drug solution is added in 6 wells at an amount of 100 μL/well. An equal volume of ribavirin is added to the positive control group, and only an equal volume of DMEM culture solution (without serum) is added to the normal cell control group and the viral control group. Incubation is conducted in 5% CO2 at 37° C. for 2 h. The drug solution is sucked out. Except the normal cell control group, 100TCID50 virus is added (the virus acts with 10 μg/mL pancreatin at 37° C. for 30 min) at an amount of 100 μL/well. Incubation is conducted in 5% CO2 at 37° C. for 2 h. The virus is sucked out, the cell maintenance medium is added at an amount of 200 μL/well. Incubation is conducted in 5% CO2 at 37° C. for continuous observation. After culture for 48 h, an MTT kit is used for detection. 1/10 volume of MTT solution is added in each well and incubated in an incubator. After 4 h, the supernatant is sucked out, DMSO is added, and the absorbance is measured and recorded at a wavelength of 490 nm. The experiment is repeated for 3 times.
(§1) The formula of the viral inhibition rate is: {(Adrug group−Avirus group)/(Anormal group−Avirus group)×100%}

[3] = tested on: RV (Wa strain RV); experiment: Effect of Z-ligustilide in directly killing RV (MTT, MA104 cells); format: cell-based, Rotavirus (RV); conditions: for inhibition rate against RV (directly killing): drug mixed with virus 2 h, 48 h
Procedure: The drug is mixed with 100TCID50 virus solution (the virus acts with 10 μg/mL pancreatin for 30 min) at an equal volume to act for 2 h. After the cells are washed twice with PBS, the cells are added in a 96-well culture plate of MA104 cells that grow to a single layer. The same operation as above is conducted for ribavirin and RV in the positive control group, and only an equal volume of DMEM is added to the normal cell control group and the viral control group. Incubation is conducted in 5% CO2 at 37° C. for 2 h, the mixed solution is sucked out, and the cell maintenance medium is added at an amount of 100 μL/well. Incubation is conducted in 5% CO2 at 37° C. for continuous observation. After continuous culture for 48 h, an MTT kit is used for detection. 1/10 volume of MTT solution is added in each well and incubated in an incubator. After 4 h, the supernatant is sucked out, DMSO is added, and the absorbance is measured and recorded at a wavelength of 490 nm. The experiment is repeated for 3 times. The viral inhibition rate of the drug is calculated. The formula of the viral inhibition rate is: {(Adrug group−Avirus group)/(Anormal group−Avirus group)×100%}

[4] = tested on: RV (Wa strain RV); experiment: Effect of Z-ligustilide in resisting RV synthesis (MTT, MA104 cells); format: cell-based, Rotavirus (RV); conditions: for inhibition rate against RV (resisting biosynthesis): drug after virus, 48 h
Procedure: as §1
100TCID50 virus solution (the virus acts with 10 μg/mL pancreatin for 30 min) is added in a 96-well culture plate of MA104-2 cells that grow to a single layer, at an amount of 100 μL/well. The cells have been washed twice with PBS. A normal cell control group is set, and added with an equal volume of DMEM culture solution. Incubation is conducted in 5% CO2 at 37° C. for 2 h, the virus solution is sucked out, and drug solution and ribavirin of different concentrations are added respectively at an amount of 100 μL/well. A viral control group is set, and only added with the cell maintenance medium at an amount of 100 μL/well. Incubation is conducted in 5% CO2 at 37° C. for continuous observation. After continuous culture for 48 h, an MTT kit is used for detection. 1/10 volume of MTT solution is added in each well and incubated in an incubator. After 4 h, the supernatant is sucked out, DMSO is added, and the absorbance is measured and recorded at a wavelength of 490 nm. The experiment is repeated for 3 times. The viral inhibition rate of the drug is calculated.

[5] = tested on: structural protein VP6 of RV; experiment: Gene expression level of structural protein VP6 of RV in RV-infected MA104 cells (real time PCR); format: cell-based, Rotavirus (RV), Wa strain; conditions: for VP6 expression level compared with the RV group: 48 h, GAPDH internal reference
Procedure: (1) To further verify whether Z-ligustilide has an effect of inhibiting RV synthesis, after Z-ligustilide inhibits RV synthesis for 48 h, drug groups of low, medium and high concentrations, the ribavirin group, the N group and the RV group are selected, the supernatant is removed, the solution is washed twice with PBS, 1 ml of Trizol reagent is added, and then the solution is collected into a 1.5 mL enzyme-free EP tube after standing for 5 min. 200 μL of chloroform is added in the tube. After vortex oscillation for 15 s, the solution is stood at room temperature for 3 min, and centrifuged (4° C., 12000 r/min, 15 min). The centrifuged sample is divided into three layers: a colorless upper layer, a white middle layer and a red lower layer.
(2) The supernatant is carefully sucked into a new 1.5 mL enzyme-free EP tube (with a volume of about 500 μL), and an equal volume of pre-cooled isopropanol is added. The solution is shaken up and down violently, mixed well, stood at 4° C. for 10 min, and centrifuged (4° C., 12000 r/min, 10 min).
(3) After centrifugation, white precipitate can be seen at the bottom of the EP tube. The supernatant is removed, and the precipitate is retained. 1 mL of the prepared 75% ethanol solution (prepared from anhydrous ethanol and enzyme-free water at a ratio of 3:1) is added, shaken and mixed well, and centrifuged (4° C., 12000 r/min, 5 min). The supernatant is discarded, and the solution is stood at room temperature for 15-20 min for drying.
(4) After drying, 20 μL of DEPC water is added in the EP tube, and the tube wall is gently blown to dissolve RNA. The RNA concentration of the sample is determined by a NanoDrop micro ultraviolet spectrophotometer, and then the sample can be used directly for the experiment or stored at −80° C. for later use.
A reaction mixture is prepared on ice according to the following components in a reaction volume of 20 μL in accordance with the instructions of Evo M-MLV RT Kit with gDNA Clean for qPCR II. The consumables used in the experiment are all Axygen enzyme-free consumables.
Reaction conditions: 42° C. 2 min, 4° C.
The reaction solution is prepared according to the following table, and the reverse transcription reaction is performed.
Reaction conditions: 37° C. 15 min, 85° C. 5 sec, 4° C.
Real time quantitative PCR is used to detect the control group and the RVWa strain-infected group by SYBR Green I fluorescent labeling. SYBR® Green Premix Pro Taq HS qPCR Kit II is used, and GAPDH is selected as the internal reference. In the experiment, dedicated real-time eight-row PCR tubes for Axygen are used for preparing a real-time fluorescence quantitative PCR amplification reaction system according to the following table, and the reaction solution is prepared on ice (the total reaction system is 10 μL).

[6] = 1st of six values printed for 65-90 μM
[7] = 2nd of six values printed for 65-90 μM
[8] = 3rd of six values printed for 65-90 μM
[9] = 4th of six values printed for 65-90 μM
[10] = 5th of six values printed for 65-90 μM
[11] = 6th of six values printed for 65-90 μM

## CCC/C=C1\OC(=O)C2=C1CCC=C2 [Z-ligustilide]
[1]; 60-95 μM
  drug toxicity to the cells: no drug toxicity
[1]; 65-90 μM
  cell viability versus the normal group: no significant difference
[1]; drug concentration 60-95 μM
  average survival rate: more than 95%
[2]; [6]
  inhibition rate against RV (resisting adsorption): 4.85%
[2]; [7]
  inhibition rate against RV (resisting adsorption): 4.55%
[2]; [8]
  inhibition rate against RV (resisting adsorption): 1.14%
[2]; [9]
  inhibition rate against RV (resisting adsorption): 3.95%
[2]; [10]
  inhibition rate against RV (resisting adsorption): 3.01%
[2]; [11]
  inhibition rate against RV (resisting adsorption): 4.69%
[2]; 65-90 μM
  effect of resisting RV adsorption: no obvious effect
[2]; within 65-90 μM
  maximum inhibition rate (resisting adsorption): about 4.85%
[3]; [6]
  inhibition rate against RV (directly killing): 2.32%
[3]; [7]
  inhibition rate against RV (directly killing): 3.25%
[3]; [8]
  inhibition rate against RV (directly killing): 0.93%
[3]; [9]
  inhibition rate against RV (directly killing): 0.4%
[3]; [10]
  inhibition rate against RV (directly killing): 6.45%
[3]; [11]
  inhibition rate against RV (directly killing): 5.89%
[3]; 65-90 μM
  effect of directly killing RV: no obvious effect
[4]
  effect of inhibiting RV biosynthesis: has an effect of inhibiting RV biosynthesis
[4]; 80 µM, without statistical difference from the ribavirin group
  inhibition rate against RV (resisting biosynthesis): 64.21%
[4]; 70-85 μM
  inhibition of rotavirus biosynthesis: can effectively inhibit rotavirus biosynthesis
  inhibition rate against RV (resisting biosynthesis): more than 50%
[5]; 75 μM
  VP6 expression level compared with the RV group: significantly decreased
[5]; 80 μM
  VP6 expression level compared with the RV group: significantly decreased
[5]; 85 μM
  VP6 expression level compared with the RV group: significantly decreased
[5]; among 75 μM, 80 μM and 85 μM
  concentration at which VP6 expression is inhibited most significantly: 75 µM

— patent US11992475B1, “Application of Z-ligustilide in resisting rotaviruses” (GUANGDONG MEDICAL UNIVERSITY, priority 2023, dated 2024)
